Experimental data reported in patent publication US10435401B2, “Pesticidally active tetracyclic derivatives with sulphur containing substituents” (Syngenta Participations AG, priority 2014, dated 2019).

What was measured:
Format in all cases: in vivo
[1] = system: Myzus persicae (Green Peach Aphid); assay: Myzus persicae intrinsic activity; settings: 120 h, test rate of 12 ppm, compound in sucrose solution under Parafilm, 5 days after infestation
From the text: Example B7: Myzus persicae (Green Peach Aphid): Intrinsic Activity
Test compounds from 10′000 ppm DMSO stock solutions were applied by pipette into 24-well microtiter plates and mixed with sucrose solution. The plates were closed with a stretched Parafilm. A plastic stencil with 24 holes was placed onto the plate and infested pea seedlings were placed directly on the Parafilm. The infested plate was closed with a gel blotting paper and another plastic stencil and then turned upside down. The samples were assessed for mortality 5 days after infestation.

[2] = system: Aedes aegypti (Yellow Fever Mosquito); assay: whole plant or invertebrate; settings: 48 h, test rate of 5 ppm, L2 larvae in 96-well plates, 2 days incubation, read-out: effect in at least one of the two categories (mortality or growth inhibition)
Procedure: Example B12: Aedes aegypti (Yellow Fever Mosquito): Feeding Contact Activity
10 to 15 Aedes larvae (L2) together with a nutrition mixture were placed in 96-well microtiter plates. Test compounds were pipetted into the wells. After an incubation period of 2 days insects were assessed for mortality and growth inhibition.

[3] = system: Plutella xylostella (Diamond Back Moth); assay: Plutella xylostella feeding/contact activity; settings: 120 h, application rate of 200 ppm, L2 larvae on treated artificial diet, 5 days after infestation, read-out: effect in at least one of the two categories (mortality or growth inhibition)
Procedure: Example B8: Plutella xylostella (Diamond Back Moth): Feeding/Contact Activity
(§1) 24-well microtiter plates with artificial diet were treated with aqueous test solutions prepared from 10′000 ppm DMSO stock solutions by pipetting. After drying, the plates were infested with L2 larvae (10 to 15 per well). The samples were assessed for mortality and growth inhibition in comparison to untreated samples 5 days after infestation.

[4] = system: Spodoptera littoralis (Egyptian Cotton Leaf Worm); assay: Spodoptera littoralis systemic activity; settings: 144 h, test rate of 12.5 ppm, compound in agar taken up by lettuce roots, 6 days after infestation, read-out: effect in at least one of the three categories (mortality, anti-feedancy, or growth inhibition)
Procedure: Example B10: Spodoptera littoralis (Egyptian Cotton Leaf Worm): Systemic Activity
Test compounds were applied by pipette from 10′000 ppm DMSO stock solutions into 24-well plates and mixed with agar. […] […] […] Spodoptera eggs were pipetted through a plastic stencil on a humid gel blotting paper and the plate closed with it. The samples were assessed for mortality, anti-feedant effect and growth inhibition in comparison to untreated samples 6 days after infestation.

[5] = system: Myzus persicae (Green Peach Aphid); assay: Myzus persicae feeding/contact activity; settings: foliar, 144 h, application rate of 200 ppm, aphid population of mixed ages on sprayed sunflower leaf discs, 6 days after infestation
Procedure: Example B5: Myzus persicae (Green Peach Aphid): Feeding/Contact Activity
(§2) Sunflower leaf discs were placed on agar in a 24-well microtiter plate and sprayed with aqueous test solutions prepared from 10′000 ppm DMSO stock solutions. After drying, the leaf discs were infested with an aphid population of mixed ages. The samples were assessed for mortality 6 days after infestation.

[6] = system: Diabrotica balteata (Corn Root Worm); assay: Diabrotica balteata feeding/contact activity; settings: 96 h, application rate of 200 ppm, L2 larvae on sprayed maize sprouts, 4 days after infestation
Procedure: Example B2: Diabrotica balteata (Corn Root Worm): Feeding/Contact Activity
as §1, with “Maize sprouts, placed on an agar layer in 24-well” for “24-well”, “plates” for “plates with artificial diet”, “spraying.” for “pipetting.”, “(6” for “(10”, “10” for “15”, “4” for “5”

[7] = system: Frankliniella occidentalis (Western Flower Thrips); assay: Frankliniella occidentalis feeding/contact activity; settings: foliar, 168 h, application rate of 200 ppm, population of mixed ages on sprayed sunflower leaf discs, 7 days after infestation
Procedure: Example B4: Frankliniella occidentalis (Western Flower Thrips): Feeding/Contact Activity
as §2, with “in” for “in a”, “plates” for “plate”, “[…]” for “10′000 ppm”, “drying” for “drying,”, “a Frankliniella” for “an aphid”, “7” for “6”

[8] = system: Spodoptera littoralis (Egyptian Cotton Leaf Worm); assay: Spodoptera littoralis feeding/contact activity; settings: foliar, 72 h, application rate of 200 ppm, L1 larvae on sprayed cotton leaf discs, 3 days after infestation, read-out: control (at least one of mortality, anti-feedant effect, growth inhibition)
Procedure: Example B9: Spodoptera littoralis (Egyptian Cotton Leaf Worm): Feeding/Contact Activity
Cotton leaf discs were placed on agar in 24-well microtiter plates and sprayed with aqueous test solutions prepared from 10′000 ppm DMSO stock solutions. After drying the leaf discs were infested with five L1 larvae. The samples were assessed for mortality, anti-feedant effect, and growth inhibition in comparison to untreated samples 3 days after infestation. Control of Spodoptera littoralis by a test sample is when at least one of mortality, anti-feedant effect, and growth inhibition is higher than the untreated sample.

[9] = system: Myzus persicae (Green Peach Aphid); assay: Myzus persicae systemic activity; settings: 144 h, test rate of 24 ppm, roots of infested pea seedlings in test solution, 6 days
Procedure: Example B6: Myzus persicae (Green Peach Aphid): Systemic Activity
Roots of pea seedlings infested with an aphid population of mixed ages were placed directly in the aqueous test solutions prepared from 10′000 ppm DMSO stock solutions. The samples were assessed for mortality 6 days after placing seedlings in test solutions.

[10] = system: Bemisia tabaci (Cotton White Fly); assay: Bemisia tabaci feeding/contact activity; settings: foliar, 144 h, application rate of 200 ppm, adult white flies on sprayed cotton leaf discs, 6 days after incubation
Procedure: Example B1: Bemisia tabaci (Cotton White Fly): Feeding/Contact Activity
Cotton leaf discs were placed on agar in 24-well microtiter plates and sprayed with aqueous test solutions prepared from 10′000 ppm DMSO stock solutions. After drying the leaf discs were infested with adult white flies. The samples were checked for mortality 6 days after incubation.

[11] = system: Tetranychus urticae (Two-Spotted Spider Mite); assay: Tetranychus urticae feeding/contact activity; settings: foliar, 192 h, application rate of 200 ppm, mite population of mixed ages (mobile stages) on sprayed bean leaf discs, 8 days after infestation
Procedure: Example B11: Tetranychus urticae (Two-Spotted Spider Mite):Feeding/Contact Activity
Bean leaf discs on agar in 24-well microtiter plates were sprayed with aqueous test solutions prepared from 10′000 ppm DMSO stock solutions. After drying the leaf discs were infested with a mite population of mixed ages. The samples were assessed for mortality on mixed population (mobile stages) 8 days after infestation.

[12] = system: Euschistus heros (Neotropical Brown Stink Bug); assay: Euschistus heros feeding/contact activity; settings: 120 h, application rate of 200 ppm, N-2 nymphs on sprayed soybean leaf, 5 days after infestation, read-out: effect in at least one of the two categories (mortality or growth inhibition)
Procedure: Example B3: Euschistus heros (Neotropical Brown Stink Bug): Feeding/Contact Activity
Soybean leaf on agar in 24-well microtiter plates were sprayed with aqueous test solutions prepared from 10′000 ppm DMSO stock solutions. After drying the leaf were infested with N-2 nymphs. The samples were assessed for growth inhibition in comparison to untreated samples 5 days after infestation.

CCS(=O)(=O)c1cc(C(F)(F)F)cnc1-c1nc2cc(C3CC3)cnc2n1C [Compound P1, 6-cyclopropyl-2-[3-ethylsulfonyl-5-(trifluoromethyl)-2-pyridyl]-3-methyl-imidazo[4,5-b]pyridine]
≥ 80%: mortality at 12 ppm [1]

CCS(=O)(=O)c1cc(C(F)(F)F)cnc1-c1nc2cc(C3(C#N)CC3)cnc2n1C [Compound P2, 1-[2-[3-ethylsulfonyl-5-(trifluoromethyl)-2-pyridyl]-3-methyl-imidazo[4,5-b]pyridin-6-yl]cyclopropanecarbonitrile]
≥ 80%: percent effect (mortality or growth inhibition) at 5 ppm [2] | percent effect (mortality or growth inhibition) at 200 ppm [3] | percent control (mortality, anti-feedancy or growth inhibition) at 12.5 ppm [4] | mortality at 200 ppm [5] | mortality at 200 ppm [6] | mortality at 200 ppm [7] | percent control (mortality, anti-feedant effect or growth inhibition) at 200 ppm [8] | mortality at 24 ppm [9] | mortality at 12 ppm [1] | mortality at 200 ppm [10]

CCS(=O)(=O)c1cc(C(F)(F)F)cnc1-c1nc2cc(C3(C#N)CCC3)cnc2n1C [Compound P3, 1-[2-[3-ethylsulfonyl-5-(trifluoromethyl)-2-pyridyl]-3-methyl-imidazo[4,5-b]pyridin-6-yl]cyclobutanecarbonitrile]
≥ 80%: mortality at 200 ppm [6]

CCS(=O)(=O)c1cc(C(F)(F)F)cnc1-c1nc2cc(C3CC3C#N)cnc2n1C (stereo not drawn) [Compound P4, 2-[2-[3-ethylsulfonyl-5-(trifluoromethyl)-2-pyridyl]-3-methyl-imidazo[4,5-b]pyridin-6-yl]cyclopropanecarbonitrile]
≥ 80%: mortality at 200 ppm [11]

CCS(=O)(=O)c1cc(C(F)(F)F)cnc1-c1nc2cc(C3CC3(C)C#N)cnc2n1C (stereo not drawn) [Compound P5, 2-[2-[3-ethylsulfonyl-5-(trifluoromethyl)-2-pyridyl]-3-methyl-imidazo[4,5-b]pyridin-6-yl]-1-methyl-cyclopropanecarbonitrile]
≥ 80%: percent control (mortality, anti-feedant effect or growth inhibition) at 200 ppm [8]

CCS(=O)(=O)c1cc(C(F)(F)F)cnc1-c1nc2cc(C3CC3)cnc2n1C [Compound P6]
≥ 80%: percent effect (mortality or growth inhibition) at 200 ppm [3] | percent control (mortality, anti-feedancy or growth inhibition) at 12.5 ppm [4] | mortality at 200 ppm [5] | mortality at 200 ppm [6] | percent effect (mortality or growth inhibition) at 200 ppm [12] | percent control (mortality, anti-feedant effect or growth inhibition) at 200 ppm [8] | mortality at 24 ppm [9]
